Data from the supplement of paper PMC10307832.

What was measured:
Test in all cases: relative viability (nuclei count vs DMSO), 5 days (fraction); higher = more cells survive
NCI-H2405 = system: NCI-H2405
Method in brief: (§1)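 A single step with final 0.05% Triton X-100, 1% formaldehyde and 1 ug/ml Hoechst fixed the cells and stained nuclei 5 days after treatment. Lung cancer cell lines in 1536-well plates had been treated by pin tool the day after seeding with one drug alone or a fixed anchor-drug dose plus five library-drug doses (not always all listed) in √10 steps, and nuclei were counted on 4× images. Relative viability is the ratio of nuclei in treated wells to nuclei in vehicle wells, taken as the median of duplicate plates.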

NCI-H647 = system: NCI-H647
Method in brief: as §1

NCI-H1915 = system: NCI-H1915
Method in brief: as §1

A-427 = system: A-427
Method in brief: as §1

NCI-H661 = system: NCI-H661
Method in brief: as §1

COR-L23 = system: COR-L23
Method in brief: as §1

NCI-H1993 = system: NCI-H1993
Method in brief: as §1

COR-L 105 = system: COR-L 105
Method in brief: as §1

HCC-366 = system: HCC-366
Method in brief: as §1

PC-14 = system: PC-14
Method in brief: as §1

EMC-BAC-2 = system: EMC-BAC-2
Method in brief: as §1

HCC-78 = system: HCC-78
Method in brief: as §1

201T = system: 201T
Method in brief: as §1

HOP-62 = system: HOP-62
Method in brief: as §1

NCI-H460 = system: NCI-H460
Method in brief: as §1

NCI-H1563 = system: NCI-H1563
Method in brief: as §1

EKVX = system: EKVX
Method in brief: as §1

BEN = system: BEN
Method in brief: as §1

NCI-H1734 = system: NCI-H1734
Method in brief: as §1

HCC-15 = system: HCC-15
Method in brief: as §1

`CN1CCN(CCOc2cc(OC3CCOCC3)c3c(Nc4c(Cl)ccc5c4OCO5)ncnc3c2)CC1` [Saracatinib] + CC(C)C[C@H](NC(=O)[C@H](Cc1ccccc1)NC(=O)c1cnccn1)B(O)O [Bortezomib] (partner 0.002 µM) showed a relative viability (NCI-H2405; first compound 0.02 µM) of 1.03, a relative viability (NCI-H2405; first compound 0.2 µM) of 0.749 and a relative viability (NCI-H2405; first compound 0.6325 µM) of 0.736. It also gave a relative viability (NCI-H2405; first compound 2 µM) of 0.716, a relative viability (NCI-H647; first compound 0.02 µM) of 0.993 and a relative viability (NCI-H647; first compound 0.2 µM) of 0.677. The relative viability (NCI-H647; first compound 0.6325 µM) was 0.757, the relative viability (NCI-H647; first compound 2 µM) was 0.641 and the relative viability (NCI-H1915; first compound 0.02 µM) was 0.959. For the same molecule, the relative viability (NCI-H1915; first compound 0.2 µM) was 0.813, the relative viability (NCI-H1915; first compound 0.6325 µM) was 0.978 and the relative viability (NCI-H1915; first compound 2 µM) was 0.886. For the same molecule, the relative viability (A-427; first compound 0.02 µM) was 1.03, the relative viability (A-427; first compound 0.2 µM) was 0.804 and the relative viability (A-427; first compound 0.6325 µM) was 0.871. For the same molecule, the relative viability (A-427; first compound 2 µM) was 0.981, the relative viability (NCI-H661; first compound 0.02 µM) was 0.831 and the relative viability (NCI-H661; first compound 0.2 µM) was 0.849. The relative viability (NCI-H661; first compound 0.6325 µM) was 0.837, the relative viability (NCI-H661; first compound 2 µM) was 0.373 and the relative viability (COR-L23; first compound 0.02 µM) was 0.98. The relative viability (COR-L23; first compound 0.2 µM) was 0.723, the relative viability (COR-L23; first compound 0.6325 µM) was 1.09 and the relative viability (COR-L23; first compound 2 µM) was 1.05. It also gave a relative viability (NCI-H1993; first compound 0.02 µM) of 1.18, a relative viability (NCI-H1993; first compound 0.2 µM) of 0.559 and a relative viability (NCI-H1993; first compound 2 µM) of 0.67. The relative viability (COR-L 105; first compound 0.02 µM) was 1.11, the relative viability (COR-L 105; first compound 0.2 µM) was 0.699 and the relative viability (COR-L 105; first compound 0.6325 µM) was 0.707. For the same molecule, the relative viability (COR-L 105; first compound 2 µM) was 0.432, the relative viability (HCC-366; first compound 0.02 µM) was 1.04 and the relative viability (HCC-366; first compound 0.6325 µM) was 0.935. For the same molecule, the relative viability (HCC-366; first compound 2 µM) was 0.769, the relative viability (PC-14; first compound 0.02 µM) was 0.941 and the relative viability (PC-14; first compound 0.2 µM) was 0.685. It also gave a relative viability (PC-14; first compound 0.6325 µM) of 0.261, a relative viability (PC-14; first compound 2 µM) of 0.169 and a relative viability (EMC-BAC-2; first compound 0.02 µM) of 1.02. It also gave a relative viability (EMC-BAC-2; first compound 0.2 µM) of 1, a relative viability (EMC-BAC-2; first compound 0.6325 µM) of 1.19 and a relative viability (EMC-BAC-2; first compound 2 µM) of 1.03. The relative viability (HCC-78; first compound 0.02 µM) was 0.505, the relative viability (HCC-78; first compound 0.2 µM) was 0.513 and the relative viability (HCC-78; first compound 0.6325 µM) was 0.583. For the same molecule, the relative viability (HCC-78; first compound 2 µM) was 0.357, the relative viability (201T; first compound 0.02 µM) was 1.07 and the relative viability (201T; first compound 0.2 µM) was 1. The relative viability (201T; first compound 0.6325 µM) was 1.04, the relative viability (201T; first compound 2 µM) was 0.848 and the relative viability (HOP-62; first compound 0.02 µM) was 0.715. For the same molecule, the relative viability (HOP-62; first compound 0.2 µM) was 0.718, the relative viability (HOP-62; first compound 0.6325 µM) was 0.692 and the relative viability (HOP-62; first compound 2 µM) was 1.06. For the same molecule, the relative viability (NCI-H460; first compound 0.02 µM) was 1.05, the relative viability (NCI-H460; first compound 0.2 µM) was 0.51 and the relative viability (NCI-H460; first compound 0.6325 µM) was 1.12. The relative viability (NCI-H460; first compound 2 µM) was 1.03, the relative viability (NCI-H1563; first compound 0.02 µM) was 0.857 and the relative viability (NCI-H1563; first compound 0.2 µM) was 0.713. For the same molecule, the relative viability (NCI-H1563; first compound 0.6325 µM) was 0.707, the relative viability (NCI-H1563; first compound 2 µM) was 0.712 and the relative viability (EKVX; first compound 0.02 µM) was 0.961. For the same molecule, the relative viability (EKVX; first compound 0.2 µM) was 0.861, the relative viability (EKVX; first compound 0.6325 µM) was 1.16 and the relative viability (EKVX; first compound 2 µM) was 0.347. For the same molecule, the relative viability (BEN; first compound 0.02 µM) was 0.928, the relative viability (BEN; first compound 0.2 µM) was 0.695 and the relative viability (BEN; first compound 0.6325 µM) was 0.889. For the same molecule, the relative viability (BEN; first compound 2 µM) was 0.573, the relative viability (NCI-H1734; first compound 0.02 µM) was 1.08 and the relative viability (NCI-H1734; first compound 0.6325 µM) was 0.891. It also gave a relative viability (NCI-H1734; first compound 2 µM) of 0.842, a relative viability (HCC-15; first compound 0.02 µM) of 0.969 and a relative viability (HCC-15; first compound 0.2 µM) of 0.986. The relative viability (HCC-15; first compound 0.6325 µM) was 1.04 and the relative viability (HCC-15; first compound 2 µM) was 0.918.

`Nc1cccc2c1CN(C1CCC(=O)NC1=O)C2=O` (stereo not given) [Lenalidomide] + CC(C)C[C@H](NC(=O)[C@H](Cc1ccccc1)NC(=O)c1cnccn1)B(O)O [Bortezomib] (partner 0.002 µM) was tested, and the relative viability (NCI-H2405; first compound 0.253 µM) was 0.912, the relative viability (NCI-H2405; first compound 0.8 µM) was 0.418 and the relative viability (NCI-H2405; first compound 2.53 µM) was 0.876. For the same molecule, the relative viability (NCI-H2405; first compound 8 µM) was 0.828, the relative viability (NCI-H647; first compound 0.253 µM) was 0.88 and the relative viability (NCI-H647; first compound 0.8 µM) was 0.9. The relative viability (NCI-H647; first compound 2.53 µM) was 1.16, the relative viability (NCI-H647; first compound 8 µM) was 0.772 and the relative viability (NCI-H1915; first compound 0.253 µM) was 0.985. It also gave a relative viability (NCI-H1915; first compound 0.8 µM) of 0.69, a relative viability (NCI-H1915; first compound 2.53 µM) of 1.06 and a relative viability (NCI-H1915; first compound 8 µM) of 0.952. The relative viability (A-427; first compound 0.253 µM) was 1.08, the relative viability (A-427; first compound 2.53 µM) was 0.951 and the relative viability (A-427; first compound 8 µM) was 0.908. The relative viability (NCI-H661; first compound 0.253 µM) was 0.7, the relative viability (NCI-H661; first compound 0.8 µM) was 0.75 and the relative viability (NCI-H661; first compound 2.53 µM) was 0.794. The relative viability (NCI-H661; first compound 8 µM) was 0.755, the relative viability (COR-L23; first compound 0.253 µM) was 0.994 and the relative viability (COR-L23; first compound 0.8 µM) was 1.11. For the same molecule, the relative viability (COR-L23; first compound 2.53 µM) was 1.07, the relative viability (COR-L23; first compound 8 µM) was 1.17 and the relative viability (NCI-H1993; first compound 0.253 µM) was 1.07. For the same molecule, the relative viability (NCI-H1993; first compound 0.8 µM) was 0.951, the relative viability (NCI-H1993; first compound 2.53 µM) was 1.12 and the relative viability (NCI-H1993; first compound 8 µM) was 0.675. It also gave a relative viability (COR-L 105; first compound 0.253 µM) of 0.792, a relative viability (COR-L 105; first compound 0.8 µM) of 0.824 and a relative viability (COR-L 105; first compound 2.53 µM) of 0.863. It also gave a relative viability (COR-L 105; first compound 8 µM) of 0.797, a relative viability (HCC-366; first compound 0.253 µM) of 0.985 and a relative viability (HCC-366; first compound 0.8 µM) of 1.03. It also gave a relative viability (HCC-366; first compound 2.53 µM) of 1.08, a relative viability (HCC-366; first compound 8 µM) of 1.05 and a relative viability (PC-14; first compound 0.253 µM) of 0.779. The relative viability (PC-14; first compound 0.8 µM) was 0.802, the relative viability (PC-14; first compound 2.53 µM) was 0.905 and the relative viability (PC-14; first compound 8 µM) was 0.854. It also gave a relative viability (EMC-BAC-2; first compound 0.253 µM) of 1.04, a relative viability (EMC-BAC-2; first compound 0.8 µM) of 0.857 and a relative viability (EMC-BAC-2; first compound 2.53 µM) of 1.15. For the same molecule, the relative viability (EMC-BAC-2; first compound 8 µM) was 0.913, the relative viability (HCC-78; first compound 0.253 µM) was 0.469 and the relative viability (HCC-78; first compound 0.8 µM) was 0.368. For the same molecule, the relative viability (HCC-78; first compound 2.53 µM) was 0.461, the relative viability (HCC-78; first compound 8 µM) was 0.392 and the relative viability (201T; first compound 0.253 µM) was 1.07. It also gave a relative viability (201T; first compound 0.8 µM) of 0.553, a relative viability (201T; first compound 2.53 µM) of 1.09 and a relative viability (201T; first compound 8 µM) of 1.11. It also gave a relative viability (HOP-62; first compound 0.253 µM) of 0.701, a relative viability (HOP-62; first compound 0.8 µM) of 0.417 and a relative viability (HOP-62; first compound 2.53 µM) of 1.06. For the same molecule, the relative viability (HOP-62; first compound 8 µM) was 0.722, the relative viability (NCI-H460; first compound 0.253 µM) was 1.16 and the relative viability (NCI-H460; first compound 0.8 µM) was 1.1. It also gave a relative viability (NCI-H460; first compound 2.53 µM) of 1.7, a relative viability (NCI-H460; first compound 8 µM) of 1.07 and a relative viability (NCI-H1563; first compound 0.253 µM) of 0.807. For the same molecule, the relative viability (NCI-H1563; first compound 0.8 µM) was 0.846, the relative viability (NCI-H1563; first compound 2.53 µM) was 0.887 and the relative viability (NCI-H1563; first compound 8 µM) was 0.748. For the same molecule, the relative viability (EKVX; first compound 0.253 µM) was 1.04, the relative viability (EKVX; first compound 0.8 µM) was 0.805 and the relative viability (EKVX; first compound 2.53 µM) was 1.17. It also gave a relative viability (EKVX; first compound 8 µM) of 0.856, a relative viability (BEN; first compound 0.253 µM) of 1.04 and a relative viability (BEN; first compound 0.8 µM) of 0.505. It also gave a relative viability (BEN; first compound 2.53 µM) of 1.02, a relative viability (BEN; first compound 8 µM) of 0.524 and a relative viability (NCI-H1734; first compound 0.253 µM) of 0.896. It also gave a relative viability (NCI-H1734; first compound 0.8 µM) of 0.907, a relative viability (NCI-H1734; first compound 2.53 µM) of 1.02 and a relative viability (NCI-H1734; first compound 8 µM) of 0.807. For the same molecule, the relative viability (HCC-15; first compound 0.253 µM) was 1.02, the relative viability (HCC-15; first compound 2.53 µM) was 1.34 and the relative viability (HCC-15; first compound 8 µM) was 0.959.
